# Data taken from patent publication US8563565B2, “Pyrazoloquinoline derivatives” (Eisai R&D Management Co., Ltd., priority 2011, dated 2013).
# Target: T1, human recombinant PDE9 protein (Homo sapiens, UniProt O76083)
# T1 construct: His-tag (inferred from the Ni column purification; a myc His-tag vector is named only for the HEK293 expression check); made in house; host or cells: silkworm (pYNG vector, Katakura Industries)
# Assay: PDE9 inhibitory activity test (measurement of PDE9 inhibitory action, [3H]-cGMP)
# Type: biochemical
# Settings: PDE9 IC50, human recombinant PDE9, 30° C., 10 min
# Description: 1) Preparation of a Human Recombinant PDE9 Protein
# An hsPDE9A 1cDNA fragment was amplified by being based on a base sequence (Accession No.: AF048837) of the hsPDE9A1 registered on GenBank data base, and by using the following sequences (Hokkaido System Science Co., Ltd.) as a primer and Human hippocampus cDNA library (Clontech Laboratories, Inc.) as a template DNA, and using Pfu50 DNA polymerase (Invitrogen Corp.), and by a polymerase chain reaction (PCR) of the following condition.
# The condition of PCR: [96° C., 5 min]×1 cycle, [(96° C., 10 sec), (57° C., 5 sec), (72° C., 2 min)]×30 cycles
# The obtained hsPDE9A 1 cDNA fragment was incorporated in a TOPO-TA cloning vector (Invitrogen Corp.), and the base sequence was checked; and thereafter, the resultant was transfected in a pcDNA 3.1/myc His-tag vector (Invitrogen Corp.) to thereby make a human PDE9 expression vector for mammal cells. The human PDE9 expression vector for mammal cells was transfected with transient expression to an HEK293 cell by using a LIPOFETAMINE 2000 Reagent (Gibco). It was confirmed by Western blot method that the PDE9A expressed in the HEK293 cell, and then, the human PDE9A 1cDNA fragment was transfected in a pYNG vector (Katakura Industries Co., Ltd.) to thereby make an expression vector for insect cells. A supernatant of homogenized silk worm in which a large amount of PDE9 was expressed was purified by an equilibrated Ni column using a buffer A (20 mmol/L Tris-HCl, pH: 8.0, 1 mmol/L DTT, 10 mmol/L imidazole). After 1 hour of mixing of the supernatant and the Ni column, cleaning was carried out using a buffer B (20 mmol/L Tris-HCl, pH: 8.0, 1 mmol/L […]), and elution was carried out using a buffer C (20 mmol/L Tris-HCl, pH: 8.0, 1 mmol/L DTT, 100 mmol/L imidazole). An elution fraction was preparatively collected to thereby obtain a PDE9 enzyme solution.
# 2) Measurement of PDE9 Inhibitory Action
# To 100 μL of a buffer D (40 mmol/L Tris-HCl, pH: 7.4, 10 mmol/L MgCl2, 1 mM DTT, 2 μM cGMP) solution containing [^3H]-cGMP ([…]/mL), 10 μL of a compound solution for evaluation (a solution in which a compound was dissolved in DMSO and diluted so that the DMSO concentration became 5%) and 90 μL of a solution prepared by diluting the PDE9 enzyme solution prepared in the above with a buffer E (40 mmol/L Tris-HCl, pH: 7.4, 10 mmol/L MgCl2, 1 mM DTT, 1 mmol/L EGTA) were added under ice cooling. The resultant mixed solution was incubated at 30° C. for 10 min, and thereafter heated for 2 min in boiled water to stop the enzyme reaction of the PDE9. Then, the resultant was returned to room temperature; 50 μL of 5′-Nucleotidase (Biomol GmbH, 10 units/mL) was added thereto; and the resultant was incubated at 30° C. for 10 min to thereby convert [^3H]-5′-GMP formed in the previous reaction to [^3H]-guanosine. 500 μL of an anion exchange resin (Bio-Rad AG1-X2 resin, mesh size: 200-400, H2O:resin=2:1) was added to the resultant reaction liquid, and allowed to stand for 10 min, and thereafter centrifuged (2,000 rpm, 10 min); and a supernatant in which the [^3H]-guanosine was present was transferred to a LumaPlate (PerkinElmer, Inc.), and the radioactivity was measured by a TopCount NXT microplate scintillation and luminescence counter (PerkinElmer, Inc.).
# The inhibition percentage of the evaluation compound was calculated using the following expression, taking the radioactivity of a control containing no evaluation compound to be (A), the radioactivity of a blank containing no enzyme to be (B), and the radioactivity of the evaluation compound to be (C). Inhibition percentage=100−{[(C)−(B)]/[(A)−(B)]}×100(%)
# The IC50 value for PDE9 of the evaluation compound was determined from inhibition percentage for various concentrations.
# T1 sequence (O76083 whole entry): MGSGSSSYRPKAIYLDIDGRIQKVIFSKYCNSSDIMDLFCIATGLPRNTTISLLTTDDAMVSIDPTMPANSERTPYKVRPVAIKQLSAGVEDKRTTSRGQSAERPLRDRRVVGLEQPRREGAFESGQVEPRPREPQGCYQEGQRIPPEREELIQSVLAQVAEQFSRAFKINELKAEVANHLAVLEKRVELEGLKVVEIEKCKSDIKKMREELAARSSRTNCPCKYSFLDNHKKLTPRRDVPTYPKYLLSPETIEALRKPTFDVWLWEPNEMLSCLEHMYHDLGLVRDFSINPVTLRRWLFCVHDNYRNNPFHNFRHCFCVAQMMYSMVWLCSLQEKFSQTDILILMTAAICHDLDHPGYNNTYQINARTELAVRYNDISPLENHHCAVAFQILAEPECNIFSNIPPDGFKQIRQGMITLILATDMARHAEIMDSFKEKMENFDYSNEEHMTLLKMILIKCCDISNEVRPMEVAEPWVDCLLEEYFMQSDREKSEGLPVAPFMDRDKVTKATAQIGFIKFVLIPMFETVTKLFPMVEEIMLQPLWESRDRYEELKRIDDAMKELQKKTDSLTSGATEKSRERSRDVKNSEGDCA
row,Structure (SMILES),IC50
1,"COc1nc(C)cc(C)c1-c1ccc2c(c1)[nH]c(=O)c1cnn([C@@H]3COC[C@H]3OC)c12 (racemic) [Example 60, 7-(2-methoxy-4,6-dimethylpyridin-3-yl)-1-[(3RS,4SR)-4-methoxytetrahydrofuran-3-yl]-1H-pyrazolo[4,3-c]quinolin-4(5H)-one]",31.1 nM
2,"COc1ncc(C)c(-c2ccc3c(c2)[nH]c(=O)c2cnn([C@@H]4COC[C@H]4OC)c23)c1C (racemic) [Example 61, 7-(2-methoxy-3,5-dimethylpyridin-4-yl)-1-[(3RS,4SR)-4-methoxytetrahydrofuran-3-yl]-1H-pyrazolo[4,3-c]quinolin-4(5H)-one]",77.5 nM
3,"COc1nc(C)cc(C)c1-c1ccc2c(c1)[nH]c(=O)c1cnn(C3CCOC3)c12 (single isomer, unassigned) [28 (+)]",29.6 nM
4,"COc1cc(C)c(-c2ccc3c(c2)[nH]c(=O)c2cnn(C4CCOC4)c23)c(C)n1 (single isomer, unassigned) [29 (+)]",137 nM
5,"COc1nc(CF)cc(C)c1-c1ccc2c(c1)[nH]c(=O)c1cnn(C3CCOC3)c12 (single isomer, unassigned) [31 (+)]",20.1 nM
6,"COc1nc(CF)cc(C)c1-c1ccc2c(c1)[nH]c(=O)c1cnn(C3CCOC3)c12 (single isomer, unassigned) [31 (−)]",7.42 nM
7,"COc1nccc(C)c1-c1ccc2c(c1)[nH]c(=O)c1cnn(C3CCOC3)c12 (single isomer, unassigned) [32 (+)]",70.7 nM
8,"COc1nc(CF)cc(C)c1-c1ccc2c(c1)[nH]c(=O)c1cnn(C3CCCOC3)c12 (single isomer, unassigned) [35 (+)]",2.62 nM
9,"COc1nc(CF)cc(C)c1-c1ccc2c(c1)[nH]c(=O)c1cnn(C3CCCOC3)c12 (single isomer, unassigned) [35 (−)]",2.96 nM
10,"COc1ncc(C)c(-c2ccc3c(c2)[nH]c(=O)c2cnn(C4CCCOC4)c23)c1C (single isomer, unassigned) [36 (+)]",8.98 nM
11,"COc1ncc(C)c(-c2ccc3c(c2)[nH]c(=O)c2cnn(C4CCCOC4)c23)c1C (single isomer, unassigned) [36 (−)]",8.1 nM
12,"COc1cc(C)c(-c2ccc3c(c2)[nH]c(=O)c2cnn(C4CCCOC4)c23)c(C)n1 (single isomer, unassigned) [37 (+)]",10.9 nM
13,"COc1cc(C)c(-c2ccc3c(c2)[nH]c(=O)c2cnn(C4CCCOC4)c23)c(C)n1 (single isomer, unassigned) [37 (−)]",10.1 nM
14,"COc1cc(C)c(-c2ccc3c(c2)[nH]c(=O)c2cnn(C4CCCOC4)c23)c(CF)n1 (single isomer, unassigned) [38 (+)]",17.1 nM
15,"COc1cc(C)c(-c2ccc3c(c2)[nH]c(=O)c2cnn(C4CCCOC4)c23)c(CF)n1 (single isomer, unassigned) [38 (−)]",12.4 nM
16,"COc1nccc(C)c1-c1ccc2c(c1)[nH]c(=O)c1cnn(C3CCCOC3)c12 (single isomer, unassigned) [39 (+)]",5.07 nM
17,"COc1nccc(C)c1-c1ccc2c(c1)[nH]c(=O)c1cnn(C3CCCOC3)c12 (single isomer, unassigned) [39 (−)]",4.08 nM
18,"COc1cc(C)c(-c2ccc3c(c2)[nH]c(=O)c2cnn(C4CCCOCC4)c23)c(C)c1 (single isomer, unassigned) [42 (+)]",8.81 nM
19,"COc1cc(C)c(-c2ccc3c(c2)[nH]c(=O)c2cnn(C4CCCOCC4)c23)c(C)c1 (single isomer, unassigned) [42 (−)]",22 nM
20,"Cc1cccc(C)c1-c1ccc2c(c1)[nH]c(=O)c1cnn(C3CCOC3)c12 (single isomer, unassigned; (+)) [33 (+), (+)-7-(2,6-dimethylphenyl)-1-(tetrahydrofuran-3-yl)-1H-pyrazolo[4,3-c]quinolin-4(5H)-one]",113 nM
21,"COc1nc(C)cc(C)c1-c1ccc2c(c1)[nH]c(=O)c1cnn(C3CCCOC3)c12 (single isomer, unassigned; (+)) [34 (+), (+)-7-(2-methoxy-4,6-dimethylpyridin-3-yl)-1-(tetrahydro-2H-pyran-3-yl)-1H-pyrazolo[4,3-c]quinolin-4(5H)-one]",3.88 nM

row,Structure (SMILES),IC50
1,"COc1ncc(C)c(-c2ccc3c(c2)[nH]c(=O)c2cnn(C4CCCOCC4)c23)c1C (single isomer, unassigned; (+)) [41 (+), (+)-7-(2-methoxy-3,5-dimethylpyridin-4-yl)-1-(oxepan-4-yl)-1H-pyrazolo[4,3-c]quinolin-4(5H)-one]",5.91 nM
2,"COc1nc(C)cc(C)c1-c1ccc2c(c1)[nH]c(=O)c1cnn(C3CCCOC3)c12 (single isomer, unassigned; (-)) [34 (−), (−)-7-(2-methoxy-4,6-dimethylpyridin-3-yl)-1-(tetrahydro-2H-pyran-3-yl)-1H-pyrazolo[4,3-c]quinolin-4(5H)-one]",3.36 nM
3,"COc1ncc(C)c(-c2ccc3c(c2)[nH]c(=O)c2cnn(C4CCCOCC4)c23)c1C (single isomer, unassigned; (-)) [41 (−), (−)-7-(2-methoxy-3,5-dimethylpyridin-4-yl)-1-(oxepan-4-yl)-1H-pyrazolo[4,3-c]quinolin-4(5H)-one]",12.1 nM
4,COc1ncc(C)c(-c2ccc3c(c2)[nH]c(=O)c2cnn([C@@H]4CCOC4)c23)c1C [25 (+)R],41 nM
5,COc1ncc(C)c(-c2ccc3c(c2)[nH]c(=O)c2cnn([C@H]4CCOC4)c23)c1C [25 (−)S],9.43 nM
6,COc1cc(C)c(-c2ccc3c(c2)[nH]c(=O)c2cnn(C4CCOC4)c23)c(CF)n1 (stereo not drawn) [30 (+)],225 nM
7,"Cc1cccc(C)c1-c1ccc2c(c1)[nH]c(=O)c1cnn(C3CCOCC3)c12 [Example 1, 7-(2,6-dimethylphenyl)-1-(tetrahydro-2H-pyran-4-yl)-1H-pyrazolo[4,3-c]quinolin-4(5H)-one]",24.3 nM
8,COCc1cc(C)c(-c2ccc3c(c2)[nH]c(=O)c2cnn(C4CCOCC4)c23)c(C)c1 [Example 7],9.2 nM
9,Cc1cc(F)nc(C)c1-c1ccc2c(c1)[nH]c(=O)c1cnn(C3CCOCC3)c12 [Example 8],25.2 nM
10,Cc1cc(Cl)c(-c2ccc3c(c2)[nH]c(=O)c2cnn(C4CCOCC4)c23)c(C)n1 [Example 9],21.7 nM
11,COc1ncc(Cl)c(C)c1-c1ccc2c(c1)[nH]c(=O)c1cnn(C3CCOCC3)c12 [Example 10],20.8 nM
12,COc1nc(C)c(Cl)c(C)c1-c1ccc2c(c1)[nH]c(=O)c1cnn(C3CCOCC3)c12 [Example 11],11.3 nM
13,Cc1cc(C#N)nc(C)c1-c1ccc2c(c1)[nH]c(=O)c1cnn(C3CCOCC3)c12 [Example 13],36.7 nM
14,COc1nc(C)c(-c2ccc3c(c2)[nH]c(=O)c2cnn(C4CCOCC4)c23)c(OC)n1 [Example 14],21.2 nM
15,Cc1cc(C(F)F)nc(C)c1-c1ccc2c(c1)[nH]c(=O)c1cnn(C3CCOCC3)c12 [Example 16],6.32 nM
16,COc1nc(CF)cc(C)c1-c1ccc2c(c1)[nH]c(=O)c1cnn(C3CCOCC3)c12 [Example 17],6.08 nM
17,Cc1cc(CF)nc(C)c1-c1ccc2c(c1)[nH]c(=O)c1cnn(C3CCOCC3)c12 [Example 19],13 nM
18,Cc1cc(C)c(-c2ccc3c(c2)[nH]c(=O)c2cnn(C4CCOCC4)c23)c(CF)n1 [Example 20],28.9 nM
19,Cc1cc(C)c(-c2ccc3c(c2)[nH]c(=O)c2cnn(C4CCOCC4)c23)c(C(F)F)n1 [Example 21],53.9 nM
20,COc1cc(CF)c(-c2ccc3c(c2)[nH]c(=O)c2cnn(C4CCOCC4)c23)c(C)n1 [Example 22],52.3 nM
